Results on two molecules are retold here after US20210220358A1, “1,3-THIAZOL-2-YL SUBSTITUTED BENZAMIDES FOR THE TREATMENT OF DISEASES ASSOCIATED WITH NERVE FIBER SENSITIZATION” (Bayer Aktiengesellschaft, priority 2018, published 2021).

Data set [1] has as its system healthy young males. As to the kind of experiment: Taste related adverse events recorded during clinical studies. In kind it is in vivo, humans. An excerpt:
Taste related adverse events describe adverse events that lead to a change in taste perception, e.g. dysgeusia (distortion of taste), hypogeusia (decrease in taste sensitivity) and ageusia (complete lack of taste).
Adverse events (AE) in the context of a clinical study are defined as any untoward medical occurrence (i.e. any unfavorable and unintended sign including abnormal laboratory findings, symptom or disease) in a patient or clinical investigation subject after providing written informed consent for participation in the study. Therefore, an AE may or may not be temporally or causally associated with the use of a medicinal (investigational) product.
3-(5-Methyl-1,3-thiazol-2-yl)-5-[(3R)-tetrahydrofuran-3-yloxy]-N-{(1R)-1-[2-(trifluoromethyl)pyrimidin-5-yl]ethyl}benzamide has been administered as single oral dose with increasing amounts starting from 10 mg per subject to 800 mg per subject in comparison with placebo to healthy young males.
(§1) In the first part of the above-described protocol, 3-(5-Methyl-1,3-thiazol-2-yl)-5-[(3R)-tetrahydrofuran-3-yloxy]-N-{(1R)-1-[2-(trifluoromethyl)pyrimidin-5-yl]ethyl}-benzamide has been administered as multiple oral dose with increasing amounts starting from 10 mg per subject twice daily to 750 mg per subject twice daily in comparison with placebo to healthy young males. […] The treatment duration was 14 days.
(§2) The treatment duration was 14 days.

Data set [2] relates to healthy young males. Nature of the data set: Adverse events (side effect profile) in multiple dose study. In kind it is in vivo, humans. As for the experimental part: In a first part of a two-part, double-blind, placebo-controlled, randomized, parallel-group study safety and tolerability of ascending repeated oral doses of the drug to be tested are assessed in 47 healthy male volunteers, followed by a second two-way crossover administration of four different doses in 40 patients with refractory chronic cough to assess safety, tolerability and efficacy for proof of concept.
as §1
In a first part of a two-part, double-blind, placebo-controlled, randomized, parallel-group study, the safety and tolerability of ascending repeated oral doses of the drug to be tested are assessed in 36 healthy male volunteers, followed by a second part with a two-way crossover administration of four different doses in patients with refractory chronic cough to assess safety, tolerability and efficacy for proof of concept.
as §2

Data set [3] concerns healthy young males. Nature of the data set: Taste assessment test (Taste Strips) during clinical studies. In kind it is in vivo, humans. The source says: The Taste Strips (Burghart Messtechnik GmbH) are a validated test method for ascertaining tasting performance (ISO certified). The following concentrations have been applied on the taste strips: sweet: 0.4, 0.2, 0.1, 0.05 g/ml sucrose; sour: 0.3, 0.165, 0.09, 0.05 g/ml citric acid; salty: 0.25, 0.1, 0.04, 0.016 g/ml sodium chloride; bitter: 0.006, 0.0024, 0.0009, 0.0004 g/ml quinine hydrochloride. The Strips were used to check the tasting performance of the whole mouth by placing a Taste Strip on the tongue and closing the mouth (the subject can move the tongue). […] Afterwards and between the 4 taste strips the mouth was rinsed with a sip of tap water according to individual needs. […] The taste strips were presented in a pseudo-randomized order (increasing concentration for each quality) and placed on the tongue. The subject's task was to choose one of five possible answers on a form (sweet, sour, salty, bitter, no taste). Before and after each testing, the mouth was rinsed with a sip of tap water according to individual needs. The lowest concentrations of each taste quality should have been identified by half of the healthy subjects only; the highest concentration should have been identified by approximately 100% of the subjects.
The taste strips were tested under blinded conditions to the subject. The number of correctly identified taste strips per subjects was counted with the maximum number achievable being 18 points (4 concentration/taste quality plus to blank paper strips).

Data set [4] relates to human P2X3 and human P2X2/3 receptors. The settings on record: cited from earlier work.
A further data set concerns human vagus nerve. Nature of the data set: Vagal depolarization - inhibition of human vagus nerve by P2X3 inhibitors (grease-gap recording). Conditions: TRPV4 agonist GSK 1016790A 300 nM; FIG. 1. As for the experimental part: The aim of the study is to test the effects of P2X3 antagonists on the deoplarisation of human vagus nerve as an ex vivo measure of blocking Chronic Cough. Human vagal tissue was dissected from 4 human lungs (obtained from healthy tissue donors).
The tissue was assayed using an O2/CO2 gassed, grease-gap recording system as described in Birrell et al, Am J Respir Crit Care Med. 2009, 180:1042-1047; Bonvini et al, J Allergy Clin Immunol. 2016, 138 (1), 249-261, Bonvini et al, Naunyn Schmiedebergs Arch Pharmacol. 2015, 388: 401-420. Briefly, after the tissue had stabilised it was exposed to two 2 minute challenges with a sub-maximal concentration of agonists (TRPV4 agonist GSK 1016790A, 300 nM). Sub-maximal concentration means a concentration where no full efficacy is observed, i.e. stimulation with the agonist within the dynamic range. Typical values are 80% of the maximal efficacy that can be achieved. The tissue was then exposed to vehicle (0.1 Vol % DMSO solution in Krebs buffer) or test compound for 10 minutes and then the tissue was re-challenged with agonist in the presence of the test compound. […] Only one experiment was performed on each piece of tissue and n=4 means tissue from 4 different lungs[…]. The data was electrophysiologically recorded as actual depolarisation levels and presented as mean percentage inhibition. Results can be found in FIG. 1.

The next data set has as its system treated subjects. The settings on record: Clinical Phase II trials (Abdulqawi et al 2015; Strand et al 2015); cited from earlier work.
Where [5] appears, read: multiple oral dose 10 mg to 750 mg twice daily, 14 days.

The structures appear in SMILES notation.

For the molecule `Cc1cnc(-c2cc(O[C@@H]3CCOC3)cc(C(=O)N[C@H](C)c3cnc(C(F)(F)F)nc3)c2)s1` [3-(5-methyl-1,3-thiazol-2-yl)-5-[(3R)-tetrahydrofuran-3-yloxy]-N-{(1R)-1-[2-(trifluoromethyl)pyrimidin-5-yl]ethyl}benzamide], the “taste AE duration” value stood at 2 h with healthy young males [1] (1 subject treated with 200 mg twice daily, on day 11) and 0.5 h with healthy young males [1] (one subject treated with 750 mg twice daily, on day 3). The “influence on perception of taste based on spontaneously reported adverse events” value in the data set on healthy young males [1] (setting [5]) is reported as “in few subjects only”. In addition, the “course of change in taste perception” value in the data set with healthy young males [1] (one subject treated with 200 mg twice daily) was “repeatedly occurring during continued treatment starting on treatment day 4 and lasting until 5 days after end of treatment”. Moreover, in the data set on healthy young males [1] (single oral dose, 10 mg to 800 mg per subject, versus placebo), the “taste related adverse events” value is given as “No taste related adverse were observed”. The nausea entry in the data set with healthy young males [2] (multiple dose study, 50 mg dose) is on record as “one case of nausea”. The “adverse events physical dependency, increased heart rate, xerostomia, constipation, drowsiness and sedation” value in the data set on healthy young males [2] (setting [5]) is reported as “no such adverse events”. In addition, the “effects on taste perception based on the taste assessment test” value was “no relevant effects on taste perception (No relevant effects on taste perception in the context of the present invention mean that no effect on taste perception has been observed in at least 80% of subjects under treatment according to the above-described protocol over a period of 14 days)” in the data set with healthy young males [3] (setting [5]); “no relevant effects on taste perception were observed” with healthy young males [3] (single oral dose 10 mg to 800 mg, tests at baseline, 3 hrs and 6 days after drug administration). The “changes in taste scores under treatment” value in the data set on healthy young males [3] (single oral dose 10 mg to 800 mg) is given as “no significant or relevant changes in taste scores were observed”.
As to `COc1cc(C(C)C)c(Oc2cnc(N)nc2N)cc1S(N)(=O)=O` [AF-219, 5-(2,4-diamino-pyrimidin-5-yloxy)-4-isopropyl-2-methoxy-benzenesulfonamide], in data set [4], the “selectivity P2X3 homomer versus P2X2/3” value is “P2X3 and P2X2/3 non-selective”. In the data set with human vagus nerve, the “effect size / efficacy in blocking vagus nerve depolarization, compared between compounds” value is given as “the effect size observed was the same”. The “taste disturbances in treated subjects” value with treated subjects is “leads to taste disturbances in treated subjects”.
